The test system of data set [1] is MCF-7/ADR cells. As to the kind of experiment: Annexin V-FITC/PI apoptosis assay. Type of data set: cell-based. The following applies: treated at IC50 value for 24 h; for necrosis (upper left quadrant, PI / Annexin V-FITC plot): control 1.56%; for total apoptosis percentage: equals sum of the three quadrants. As to the method: P-gp inhibits apoptosis by preventing the release of cytochrome c which is mediated by the intrinsic mitochondrial pathway. Also, blocking cell cycle progression, inducing apoptosis or the combined effect of both are one of the indicated mechanisms for the cytotoxic effect of the chemotherapeutic drugs. Therefore, further assessment of the pivotal relationship between the newly synthesized MCF-7/ADR anticancer compounds and apoptosis was measured by the means of the Annexin V/PI double staining flow cytometric assay.
Apoptosis assay was performed with an Annexin V-FITC/PI double staining apoptosis detection kit (K101, Biovison) using a flow cytometer. […] Cells were harvested by the trypsinization, washed twice with 4 °C PBS, and re-suspended in the binding buffer. Subsequently, the Annexin V-FITC and Propidium iodide (PI) solutions were added to stain the cells before the analysis by the flow cytometry, where a minimum of 10,000 cells per sample were acquired. The Annexin V-FITC binding (FL1) and PI (FL2) were analyzed, using the Cell Quest Pro software (BD Biosciences).

Data set [2] deals with T1, P-gp (Homo sapiens, UniProt P08183). The data set is described as follows: in vitro. To be noted: MCF-7/ADR cells (cell lysate).
T1 sequence (P08183 whole entry): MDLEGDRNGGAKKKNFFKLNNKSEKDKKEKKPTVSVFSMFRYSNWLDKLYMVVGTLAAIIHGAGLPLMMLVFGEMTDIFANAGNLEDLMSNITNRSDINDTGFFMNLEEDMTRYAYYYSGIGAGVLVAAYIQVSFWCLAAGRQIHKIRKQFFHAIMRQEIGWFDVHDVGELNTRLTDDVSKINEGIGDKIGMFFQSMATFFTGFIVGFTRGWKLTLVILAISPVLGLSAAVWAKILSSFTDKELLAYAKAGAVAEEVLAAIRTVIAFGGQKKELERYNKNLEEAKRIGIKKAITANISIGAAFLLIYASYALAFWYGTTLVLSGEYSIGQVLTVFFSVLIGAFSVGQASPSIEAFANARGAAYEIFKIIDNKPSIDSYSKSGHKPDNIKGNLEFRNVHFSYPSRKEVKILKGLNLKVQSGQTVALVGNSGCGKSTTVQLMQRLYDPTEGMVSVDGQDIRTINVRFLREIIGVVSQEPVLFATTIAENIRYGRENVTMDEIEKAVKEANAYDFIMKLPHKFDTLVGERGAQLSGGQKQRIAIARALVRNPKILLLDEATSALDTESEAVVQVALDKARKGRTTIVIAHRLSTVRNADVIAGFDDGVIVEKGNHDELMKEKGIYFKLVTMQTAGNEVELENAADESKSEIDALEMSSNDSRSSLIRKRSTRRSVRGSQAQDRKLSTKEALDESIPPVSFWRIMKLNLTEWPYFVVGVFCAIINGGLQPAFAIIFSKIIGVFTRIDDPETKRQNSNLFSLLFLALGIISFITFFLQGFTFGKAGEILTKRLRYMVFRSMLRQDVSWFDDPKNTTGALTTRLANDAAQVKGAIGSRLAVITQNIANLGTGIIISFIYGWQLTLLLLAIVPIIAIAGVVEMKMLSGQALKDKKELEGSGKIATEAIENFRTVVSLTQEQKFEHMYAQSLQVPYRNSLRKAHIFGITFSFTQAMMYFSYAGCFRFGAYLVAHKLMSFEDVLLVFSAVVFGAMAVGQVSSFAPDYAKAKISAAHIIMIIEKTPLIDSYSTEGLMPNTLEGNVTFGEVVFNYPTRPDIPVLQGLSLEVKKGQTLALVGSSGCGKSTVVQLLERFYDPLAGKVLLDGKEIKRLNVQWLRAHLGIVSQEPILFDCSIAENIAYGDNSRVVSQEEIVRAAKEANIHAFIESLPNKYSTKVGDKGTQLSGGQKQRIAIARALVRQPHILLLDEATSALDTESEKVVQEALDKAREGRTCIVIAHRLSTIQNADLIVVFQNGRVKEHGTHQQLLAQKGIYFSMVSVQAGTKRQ
Description: (§4) The content of P-gp in the MCF-7/ADR cell lysates after incubation with varying conc. […] Absorption was recorded at 450 nm with a Spectramax Gemini fluorescence microplate reader (Molecular Devices, Sunnyvale, CA, USA)[78].
In the next data set the test system is HeLa. The data set is described as follows: MTT viability assay, HeLa. Type of data set: cell-based. The following applies: 24 h incubation, mean ± standard error. As to the method: (§1) Using concentrations ranging from 0 to 100 μM against PC-3, SKOV-3, and HeLa cancerogenic cell lines, target compounds 4a–l were assessed for their anticancer activities[53] and compared with the commercially available Vinblastine and Doxorubicin. […] The compounds with the greatest cytotoxic activity against the cancerous cell lines PC-3, SKOV-3, and HeLa were 4a–c, 4g, and 4h. […] We selected the cytotoxic active compounds 4a–c, 4g, and 4h to be evaluated against MCF-7/ADR cancerogenic and HFL-1 and WI-38 non-cancerogenic cell lines (Figs. 7, 8 and Table 1).
(§2) The tumor cell lines (PC-3, SKOV-3, and HeLa), resistant cell strains (MCF-7/ADR) and the normal cell lines, (HFL-1, WI-38) were obtained from the American Type Culture Collection (ATCC, Rockville, MD, USA).
(§3) The tumor cell lines were suspended in medium at concentration 5 × 10^4 cells well^−1 in Corning® 96-well tissue culture plates and then incubated for 24 h. The tested compounds with concentrations ranging from 0 to 100 μM were then added into 96-well plates (six replicates) to achieve six different concentrations for each compound. Six vehicle controls with media or 0.5% DMSO were run for each 96 well plate as a control. After incubating for 24 h, the numbers of viable cells were determined by the MTT test[53]. Briefly, the media was removed from the 96 well plates and replaced with 100 μl of fresh culture RPMI 1640 medium without phenol red then 10 μl of the 12 mM MTT stock solution (5 mg of MTT in 1 ml of PBS) to each well including the untreated controls. The 96-well plates were then incubated at 37 °C and 5% CO2 for 4 h. An 85-μl aliquot of the media was removed from the wells, and 50 μl of DMSO was added to each well and mixed thoroughly with the pipette and incubated at 37 °C for 10 min. Then, the optical density was measured at 590 nm with the microplate reader (Sunrise, TECAN, Inc, USA) to determine the number of viable cells and the percentage of viability was calculated as […] where ODt is the mean optical density of wells treated with the tested sample and ODc is the mean optical density of untreated cells. The relation between surviving cells and drug concentration is plotted to get the survival curve of each tumor cell line after treatment with the specified compound. The 50% inhibitory concentration (IC50), the concentration required to cause toxic effects in 50% of intact cells, was estimated from graphic plots of the dose response curve for each concentration.

For the next data set, the system named is human fetal lung (HFL-1). The data set is described as follows: MTT viability assay, normal HFL-1. It is filed as cell-based. The following applies: HFL1, normal cell line, 24 h, mean ± standard error. As to the method:
as §1, §2, §3

In a further data set the test system is MCF-7/ADR. The data set is described as follows: MTT viability assay, resistant MCF-7/ADR. It is filed as cell-based. To be noted: MTT, 24 h exposure, mean ± standard error. As to the method: as §1, §2, §3
A further data set has as its system PC-3. As to the kind of experiment: MTT viability assay, PC-3. It is filed as cell-based. The following applies: MTT, 24 h incubation, mean ± standard error. As to the method: as §1, §2, §3
Data set [3] deals with T1, P-gp. As to the kind of experiment: cell-based.
Description: Absorbance at 450 nm of each well was measured using Spectramax Gemini fluorescence microplate reader (Molecular Devices, Sunnyvale, CA, USA). The total content of Rhodamine in each sample was determined by comparison with a Rhodamine standard curve.
The subject of data set [4] is MCF-7/ADR cells. The data set is described as follows: Cell cycle assay (propidium iodide flow cytometry). To be noted: treated at IC50 value for 24 h; for percentage of MCF-7/ADR cells in S phase (%DIP S): untreated control 29.61%. It is filed as cell-based. Here is the method:
The most powerful recently synthesized substances 4a–c on regulating cell cycle progression of MCF-7/ADR cells was analyzed by the flow cytometry, exploiting the FACS Calibers (Becton Dickinson). […] Cell cycle progression results of compounds 4a and 4b show cell cycle arrest at S phase with 41.17% and 34.62% respectively compared to 29.61% of the negative untreated control. […] Cell cycle arrest and distribution were done using Propidium Iodide Flow Cytometry Kit (ab139418, Abcam) as previously described. […] The DNA content in each cell nucleus was determined by a FACS Calibur flow cytometer (BD Biosciences, Franklin Lakes, NJ, USA).

The subject of data set [5] is human diploid fibroblasts (WI-38). As to the kind of experiment: MTT viability assay, normal WI-38. The following applies: normal cell line, 24 h, mean ± standard error. It is filed as cell-based. Here is the method:
as §1, §2, §3

A further data set relates to SKOV-3. The data set is described as follows: MTT viability assay, SKOV-3. Type of data set: cell-based. To be noted: for IC50: MTT, 24 h incubation, mean ± standard error; for times more potency than Doxorubicin, SKOV-3 / times more potency than Vinblastine, SKOV-3: ratio of IC50 values. As to the method:
as §1, §2, §3

Data set [6] deals with T1, P-gp.
Description: as §4

The results in this text go back to PMC10981727, “Design, synthesis and bioactivity study on oxygen-heterocyclic-based pyran analogues as effective P-glycoprotein-mediated multidrug resistance in MCF-7/ADR cell” (Scientific Reports, 2024).

Where two headings read alike, the source gives them in different places.

As for `N#CC1=C(N)Oc2ccc3ccc(O)cc3c2C1c1ccc(F)cc1` (centres unmarked) [4a, 3-Amino-1-(4-fluorophenyl)-9-hydroxy-1H-benzo[f]chromene-2-carbonitrile], the melting point was found to be 272 °C. Also, in the data set on MCF-7/ADR cells [1], the “necrosis (upper left quadrant, PI / Annexin V-FITC plot)” value amounted to 16.42% and the total apoptosis percentage is 31.98%. The compound also showed an IC50 at 48 h on P-gp [2] of 34.7 µM. For the same compound, the IC50 in the data set with HeLa (Homo sapiens, HeLa) is 1.5 ± 0.3 µM. The same compound gave a half-maximal inhibitory concentration (IC50) with human fetal lung (HFL-1) of 69.8 ± 0.3 µM. Besides, the IC50 with MCF-7/ADR (Homo sapiens, NCI/ADR-RES) turned out to be 9.5 ± 0.3 µM. Half-maximal inhibition in the data set on PC-3 (Homo sapiens, PC-3) (IC50) required 1.8 ± 0.3 µM. At P-gp [3], the IC50 amounted to 30.9 µM. Moreover, the “percentage of MCF-7/ADR cells in S phase (%DIP S)” value in the data set on MCF-7/ADR cells [4] turned out to be 41.17%. The same compound showed an IC50 in data set [5] of 83.7 ± 1.1 µM. In addition, in the data set on SKOV-3 (Homo sapiens, SK-OV-3), the IC50 stood at 0.6 ± 0.2 µM. Also, in the data set on SKOV-3, the “times more potency than Doxorubicin, SKOV-3” value was found to be 1.8 times and the “times more potency than Vinblastine, SKOV-3” value amounted to 5.3 times.

With `N#CC1=C(N)Oc2ccc3ccc(O)cc3c2C1c1ccccc1Cl` (centres unmarked) [4b, 3-Amino-1-(2-chlorophenyl)-9-hydroxy-1H-benzo[f]chromene-2-carbonitrile], the melting point lay in the range of 262 to 263 °C. The compound also showed a total apoptosis percentage in the data set with MCF-7/ADR cells [1] of 43.51%. Besides, on P-gp [2], the IC50 at 48 h came to 15.4 µM. In the data set on HeLa (Homo sapiens, HeLa), the IC50 was determined as 2.4 ± 0.2 µM. In addition, the IC50 in the data set on human fetal lung (HFL-1) worked out at 72 ± 0.2 µM. In the data set on MCF-7/ADR (Homo sapiens, NCI/ADR-RES), this compound gave an IC50 of 5 ± 0.1 µM. For the same compound, the midpoint of inhibition in the data set on PC-3 (Homo sapiens, PC-3), the IC50, lay at 3.3 ± 0.5 µM. Further, on P-gp [3], half-maximal inhibition (IC50) was put at 13.3 µM. The “percentage of MCF-7/ADR cells in S phase (%DIP S)” value in the data set with MCF-7/ADR cells [4] is reported as 34.62%. This compound yielded an IC50 in [5] of 61.1 ± 0.1 µM. In addition, the IC50 in the data set with SKOV-3 (Homo sapiens, SK-OV-3) is 0.7 ± 0.2 µM. Besides, in the data set on SKOV-3, the “times more potency than Doxorubicin, SKOV-3” value was found to be 1.6 times and the “times more potency than Vinblastine, SKOV-3” value was found to be 4.6 times.

With `N#CC1=C(N)Oc2ccc3ccc(O)cc3c2C1c1cccc(Cl)c1` (centres unmarked) [4c, 3-Amino-1-(3-chlorophenyl)-9-hydroxy-1H-benzo[f]chromene-2-carbonitrile], the melting point fell in the range of 260 to 261 °C. In addition, the total apoptosis percentage in the data set with MCF-7/ADR cells [1] is 36.17%. The IC50 at 48 h at P-gp [2] worked out at 27.3 µM. Half-maximal inhibition in the data set on HeLa (Homo sapiens, HeLa) (IC50) required 2.1 ± 0.2 µM. This compound displayed an IC50 in the data set with human fetal lung (HFL-1) of 56.5 ± 1.2 µM. The compound also returned an IC50 in the data set on MCF-7/ADR (Homo sapiens, NCI/ADR-RES) of 10.7 ± 0.3 µM. Besides, the IC50 in the data set with PC-3 (Homo sapiens, PC-3) came to 2.3 ± 2.2 µM. Moreover, the IC50 at P-gp [3] turned out to be 21.5 µM. Also, the “percentage of MCF-7/ADR cells in G2/M phase (%DIP G2/M)” value in the data set with MCF-7/ADR cells [4] (untreated control 15.01%) worked out at 29.54%. Besides, in data set [5], the 50% inhibitory concentration (IC50) is 58.2 ± 1.1 µM. For the same compound, half-maximal inhibition with SKOV-3 (Homo sapiens, SK-OV-3) (IC50) required 0.8 ± 0.1 µM. Also, in the data set with SKOV-3, the “times more potency than Doxorubicin, SKOV-3” value amounted to 1.4 times and the “times more potency than Vinblastine, SKOV-3” value was 4 times.

Take Doxorubicin [reference compound]: the “necrosis (upper left quadrant, PI / Annexin V-FITC plot)” value in the data set on MCF-7/ADR cells [1] came to 3.33%. This compound also had a total apoptosis percentage in the data set with MCF-7/ADR cells [1] of 29.59%. The IC50 with HeLa was determined as 1.5 ± 0.3 µM; with MCF-7/ADR it was 18.6 ± 0.2 µM; in the data set on PC-3, 1.3 ± 0.3 µM; on P-gp [6], 50.9 µM; in the data set on SKOV-3, 1.1 ± 0.2 µM.
